Source: patent publication US20220305012A1, “L[…] TREATING SLEEP ISSUES” (EISAI R&D MANAGEMENT CO., LTD., priority 2019, published 2022)

Columns and labels:
Assay type in all cases: in vivo, human
[1] = test system: Subjects Having Insomnia Disorder; experiment: Example 2: duration of long awakenings; conditions: both doses; relative to placebo, compared with zolpidem ER (FIG. 12)
[2] = test system: Subjects Having Insomnia Disorder; experiment: Example 1: subjective wake after sleep onset (sWASO), Sleep Diary
Text: As used herein, the term “subjective wake after sleep onset”, abbreviated as “sWASO”, means the sum of estimated minutes of wake during the night after initial sleep onset until the time the subject stopped trying to sleep for the night, operationalized as the time the subject got out of bed for the day. In some embodiments, sWASO is derived from data entered in a subject's Sleep Diary. As used herein, an “improvement of sWASO” means a reduction in sWASO.
(§1) In some embodiments, sleep diaries were used to assess sleep parameters reported by subjects (i.e., subjective assessments) including subjective sleep onset latency (sSOL), subjective sleep efficiency (sSE), subjective WASO (sWASO), and subjective total sleep time (sTST). Subjects were instructed to complete the Sleep Diary developed based on the consensus Sleep Diary as described in Carney et al., “The consensus sleep diary: standardizing prospective sleep self-monitoring,” Sleep 2012; 35(2):287-302. In some embodiments, the Sleep Diary was used to assess the subject's global perception of quality of sleep on the previous night with the following question: “How would you rate the quality of your sleep last night?” Subjects rated the quality of their sleep on a scale from 1 to 9, with 1 being extremely poor and 9 being extremely good. In some embodiments, the Sleep Diary was used to assess subjective ratings of morning sleepiness with the following question: “How alert/sleepy do you feel this morning?” Subjects rated their sleepiness/alertness level on a Likert scale from 1 to 9, with 1 being extremely sleepy and 9 being extremely alert.
sWASO—subjective wake after sleep onset: sum of estimated minutes of wake during the night after initial sleep onset until the time the subject stopped trying to sleep for the night, operationalized as the time the subject got out of bed for the day.
(§2) Subjects were randomized in a double-blind manner and received either placebo, 5 mg of lemborexant, or 10 mg of lemborexant (approximately 1:1:1 randomization). All subjects underwent routine safety monitoring through the study, including assessments of treatment-emergent adverse events, 12-lead electrocardiograms, vital signs, weight, and clinical hematology and blood chemistry labs. Suicidality was assessed using the eC-SSRS.
(§3) Treatment period 1 began with the first dose of randomized study medication (placebo, 5 mg of lemborexant, or 10 mg of lemborexant). Subjects completed sleep diaries daily in the morning, within one hour of waketime. The subjects were assessed by a clinician one month, two months, three months, and six months after initiation of Treatment period 1. The following assessments were conducted:
This study had two key secondary endpoints. The first key secondary endpoint was the mean change from study baseline in subjective sleep efficiency at month 6. The second key secondary endpoint was the mean change from study baseline of subjective wake after sleep onset at month 6.

[3] = test system: Subjects Having Insomnia Disorder; experiment: Example 1: subjective total sleep time (sTST), Sleep Diary
Text: As used herein, the term “subjective total sleep time”, abbreviated as “sTST”, means the derived minutes of sleep from sleep onset until the time the subject stopped trying to sleep for the night. In some embodiments, sTST is derived from data entered in a subject's Sleep Diary.
as §1
sTST—subjective total sleep time: derived minutes of sleep from sleep onset until the time the subject stopped trying to sleep for the night.
as §2, §3
In addition to the aforementioned study endpoints, the study included several additional secondary endpoints: • Mean change from study baseline of subjective sleep onset latency, subjective sleep efficiency, subjective wake after sleep onset, and subjective total sleep time at the beginning of treatment (mean of the 7 nights after the first dose in Period 1), at Month 1 and at Month 3. • Mean change from study baseline of subjective total sleep time at Month 6. • Change from study baseline in daytime functioning, assessed as the total score from the 4 items on daytime functioning, on the Insomnia Severity Index, at Months 1, 3, and 6.

[4] = 5 mg, change from Study Baseline after 1 Month
[5] = 5 mg, change from Study Baseline after 3 Months
[6] = 5 mg, change from Study Baseline after 6 Months
[7] = 5 mg, change from Study Baseline after 7 Nights
[8] = 10 mg, change from Study Baseline after 1 Month
[9] = 10 mg, change from Study Baseline after 3 Months
[10] = 10 mg, change from Study Baseline after 6 Months
[11] = 10 mg, change from Study Baseline after 7 Nights

Cc1ncc(OC[C@@]2(c3cccc(F)c3)C[C@H]2C(=O)Nc2ccc(F)cn2)c(C)n1 [Lemborexant, (1R,2S)-2-(((2,4-dimethylpyrimidin-5-yl)oxy)methyl)-2-(3-fluorophenyl)-N-(5-fluoropyridin-2-yl)cyclopropanecarboxamide]
length of long awakenings [1]: greater reduction in the length of long awakenings than treatment with zolpidem ER
subjective wake after sleep onset compared with placebo ([2]; 5 mg and 10 mg, at the equivalent timepoint (Table 4)): greater reduction in mean subjective wake after sleep onset than subjects treated with placebo
sWASO, Mean ([2]; 5 mg, First 7 Nights): 113.53 min
sWASO, Median ([2]; 5 mg, First 7 Nights): 87.86 min
sWASO, Mean ([2]; 5 mg, Month 1): 107.07 min
sWASO, Median ([2]; 5 mg, Month 1): 85.29 min
sWASO, Mean ([2]; 5 mg, Month 3): 89.48 min
sWASO, Median ([2]; 5 mg, Month 3): 66.43 min
sWASO, Mean ([2]; 5 mg, Month 6): 81.79 min
sWASO, Median ([2]; 5 mg, Month 6): 60.00 min
sWASO, Mean ([2]; 5 mg, Study Baseline): 132.77 min
sWASO, Median ([2]; 5 mg, Study Baseline): 114.71 min
sWASO Change from Study Baseline, Mean ([2]; 5 mg, after 1 Month): -23.42 min
sWASO Change from Study Baseline, Median ([2]; 5 mg, after 1 Month): -19.29 min
sWASO Change from Study Baseline, Mean ([2]; 5 mg, after 3 Months): -42.98 min
sWASO Change from Study Baseline, Median ([2]; 5 mg, after 3 Months): -34.57 min
sWASO Change from Study Baseline, Mean ([2]; 5 mg, after 6 Months): -51.45 min
sWASO Change from Study Baseline, Median ([2]; 5 mg, after 6 Months): -44.02 min
sWASO Change from Study Baseline, Mean ([2]; 5 mg, after 7 Nights): -20.21 min
sWASO Change from Study Baseline, Median ([2]; 5 mg, after 7 Nights): -16.01 min
sWASO LSM treatment difference: Lemborexant/Placebo [2, 4]: -5.514 min
sWASO LSM treatment difference: Lemborexant/Placebo [2, 5]: -13.424 min
sWASO LSM treatment difference: Lemborexant/Placebo [2, 6]: -17.474 min
sWASO LSM treatment difference: Lemborexant/Placebo [2, 7]: -14.328 min
sWASO, Mean ([2]; 10 mg, First 7 Nights): 113.77 min
sWASO, Median ([2]; 10 mg, First 7 Nights): 92.29 min
sWASO, Mean ([2]; 10 mg, Month 1): 109.42 min
sWASO, Median ([2]; 10 mg, Month 1): 95.00 min
sWASO, Mean ([2]; 10 mg, Month 3): 95.66 min
sWASO, Median ([2]; 10 mg, Month 3): 70.00 min
sWASO, Mean ([2]; 10 mg, Month 6): 86.38 min
sWASO, Median ([2]; 10 mg, Month 6): 62.14 min
sWASO, Mean ([2]; 10 mg, Study Baseline): 136.83 min
sWASO, Median ([2]; 10 mg, Study Baseline): 120.57 min
sWASO Change from Study Baseline, Mean ([2]; 10 mg, after 1 Month): -26.82 min
sWASO Change from Study Baseline, Median ([2]; 10 mg, after 1 Month): -22.29 min
sWASO Change from Study Baseline, Mean ([2]; 10 mg, after 3 Months): -39.42 min
sWASO Change from Study Baseline, Median ([2]; 10 mg, after 3 Months): -36.07 min
sWASO Change from Study Baseline, Mean ([2]; 10 mg, after 6 Months): -48.12 min
sWASO Change from Study Baseline, Median ([2]; 10 mg, after 6 Months): -47.43 min
sWASO Change from Study Baseline, Mean ([2]; 10 mg, after 7 Nights): -23.30 min
sWASO Change from Study Baseline, Median ([2]; 10 mg, after 7 Nights): -20.71 min
sWASO LSM treatment difference: Lemborexant/Placebo [2, 8]: -7.005 min
sWASO LSM treatment difference: Lemborexant/Placebo [2, 9]: -10.079 min
sWASO LSM treatment difference: Lemborexant/Placebo [2, 10]: -12.671 min
sWASO LSM treatment difference: Lemborexant/Placebo [2, 11]: -16.720 min
subjective total sleep time compared with placebo ([3]; 5 mg and 10 mg, at the equivalent timepoint (Table 5)): greater increase in subjective total sleep time than subjects treated with placebo
sTST, Mean ([3]; 5 mg, First 7 Nights): 350.80 min
sTST, Median ([3]; 5 mg, First 7 Nights): 366.0 min
sTST, Mean ([3]; 5 mg, Month 1): 357.14 min
sTST, Median ([3]; 5 mg, Month 1): 374.64 min
sTST, Mean ([3]; 5 mg, Month 3): 386.42 min
sTST, Median ([3]; 5 mg, Month 3): 397.86 min
sTST, Mean ([3]; 5 mg, Month 6): 392.08 min
sTST, Median ([3]; 5 mg, Month 6): 403.43 min
sTST, Mean ([3]; 5 mg, Study Baseline): 315.52 min
sTST, Median ([3]; 5 mg, Study Baseline): 332.14 min
sTST Change from Study Baseline, Mean ([3]; 5 mg, after 1 Month): 39.32 min
sTST Change from Study Baseline, Median ([3]; 5 mg, after 1 Month): 36.33 min
sTST Change from Study Baseline, Mean ([3]; 5 mg, after 3 Months): 65.82 min
sTST Change from Study Baseline, Median ([3]; 5 mg, after 3 Months): 60.71 min
sTST Change from Study Baseline, Mean ([3]; 5 mg, after 6 Months): 76.21 min
sTST Change from Study Baseline, Median ([3]; 5 mg, after 6 Months): 70.71 min
sTST Change from Study Baseline, Mean ([3]; 5 mg, after 7 Nights): 34.29 min
sTST Change from Study Baseline, Median ([3]; 5 mg, after 7 Nights): 30.71 min
sTST LSM treatment difference: Lemborexant/Placebo [3, 4]: 11.760 min
sTST LSM treatment difference: Lemborexant/Placebo [3, 5]: 17.374 min
sTST LSM treatment difference: Lemborexant/Placebo [3, 6]: 18.555 min
sTST LSM treatment difference: Lemborexant/Placebo [3, 7]: 22.034 min
sTST, Mean ([3]; 10 mg, First 7 Nights): 351.43 min
sTST, Median ([3]; 10 mg, First 7 Nights): 365.11 min
sTST, Mean ([3]; 10 mg, Month 1): 355.96 min
sTST, Median ([3]; 10 mg, Month 1): 369.23 min
sTST, Mean ([3]; 10 mg, Month 3): 374.99 min
sTST, Median ([3]; 10 mg, Month 3): 391.43 min
sTST, Mean ([3]; 10 mg, Month 6): 379.25 min
sTST, Median ([3]; 10 mg, Month 6): 398.57 min
sTST, Mean ([3]; 10 mg, Study Baseline): 306.89 min
sTST, Median ([3]; 10 mg, Study Baseline): 315.33 min
sTST Change from Study Baseline, Mean ([3]; 10 mg, after 1 Month): 53.22 min
sTST Change from Study Baseline, Median ([3]; 10 mg, after 1 Month): 47.77 min
sTST Change from Study Baseline, Mean ([3]; 10 mg, after 3 Months): 70.95 min
sTST Change from Study Baseline, Median ([3]; 10 mg, after 3 Months): 64.52 min
sTST Change from Study Baseline, Mean ([3]; 10 mg, after 6 Months): 78.32 min
sTST Change from Study Baseline, Median ([3]; 10 mg, after 6 Months): 72.93 min
sTST Change from Study Baseline, Mean ([3]; 10 mg, after 7 Nights): 46.01 min
sTST Change from Study Baseline, Median ([3]; 10 mg, after 7 Nights): 42.31 min
sTST LSM treatment difference: Lemborexant/Placebo [3, 8]: 22.131 min
sTST LSM treatment difference: Lemborexant/Placebo [3, 9]: 21.686 min
sTST LSM treatment difference: Lemborexant/Placebo [3, 10]: 22.686 min
sTST LSM treatment difference: Lemborexant/Placebo [3, 11]: 31.796 min
